Converted amounts (≈) assume the structure as drawn.
Columns and labels:
[1] = target: Voltage-dependent T-type calcium channel subunit alpha-1H (Homo sapiens, UniProt O95180); assay: Channel blocking activity at recombinant human CaV 3.2 channel expressed in HEK293 cells assessed as inhibition of Ca2+ flux preincubated for 3 mins followed by CaCl2 addition by fluo-4 dye-based FLIPR assay; format: cell-based
[2] = target: Voltage-dependent T-type calcium channel subunit alpha-1G (Homo sapiens, UniProt O43497); assay: Channel blocking activity at recombinant human CaV 3.1 channel expressed in HEK293 cells assessed as inhibition of Ca2+ flux preincubated for 3 mins followed by CaCl2 addition by fluo-4 dye-based FLIPR assay; format: cell-based
[3] = target: Voltage-dependent T-type calcium channel subunit alpha-1I (Homo sapiens, UniProt Q9P0X4); assay: Channel blocking activity at recombinant human CaV 3.3 channel expressed in HEK293 cells assessed as inhibition of Ca2+ flux preincubated for 3 mins followed by CaCl2 addition by fluo-4 dye-based FLIPR assay; format: cell-based
Voltage-dependent T-type calcium channel subunit alpha-1I, sequence (Q9P0X4 whole entry): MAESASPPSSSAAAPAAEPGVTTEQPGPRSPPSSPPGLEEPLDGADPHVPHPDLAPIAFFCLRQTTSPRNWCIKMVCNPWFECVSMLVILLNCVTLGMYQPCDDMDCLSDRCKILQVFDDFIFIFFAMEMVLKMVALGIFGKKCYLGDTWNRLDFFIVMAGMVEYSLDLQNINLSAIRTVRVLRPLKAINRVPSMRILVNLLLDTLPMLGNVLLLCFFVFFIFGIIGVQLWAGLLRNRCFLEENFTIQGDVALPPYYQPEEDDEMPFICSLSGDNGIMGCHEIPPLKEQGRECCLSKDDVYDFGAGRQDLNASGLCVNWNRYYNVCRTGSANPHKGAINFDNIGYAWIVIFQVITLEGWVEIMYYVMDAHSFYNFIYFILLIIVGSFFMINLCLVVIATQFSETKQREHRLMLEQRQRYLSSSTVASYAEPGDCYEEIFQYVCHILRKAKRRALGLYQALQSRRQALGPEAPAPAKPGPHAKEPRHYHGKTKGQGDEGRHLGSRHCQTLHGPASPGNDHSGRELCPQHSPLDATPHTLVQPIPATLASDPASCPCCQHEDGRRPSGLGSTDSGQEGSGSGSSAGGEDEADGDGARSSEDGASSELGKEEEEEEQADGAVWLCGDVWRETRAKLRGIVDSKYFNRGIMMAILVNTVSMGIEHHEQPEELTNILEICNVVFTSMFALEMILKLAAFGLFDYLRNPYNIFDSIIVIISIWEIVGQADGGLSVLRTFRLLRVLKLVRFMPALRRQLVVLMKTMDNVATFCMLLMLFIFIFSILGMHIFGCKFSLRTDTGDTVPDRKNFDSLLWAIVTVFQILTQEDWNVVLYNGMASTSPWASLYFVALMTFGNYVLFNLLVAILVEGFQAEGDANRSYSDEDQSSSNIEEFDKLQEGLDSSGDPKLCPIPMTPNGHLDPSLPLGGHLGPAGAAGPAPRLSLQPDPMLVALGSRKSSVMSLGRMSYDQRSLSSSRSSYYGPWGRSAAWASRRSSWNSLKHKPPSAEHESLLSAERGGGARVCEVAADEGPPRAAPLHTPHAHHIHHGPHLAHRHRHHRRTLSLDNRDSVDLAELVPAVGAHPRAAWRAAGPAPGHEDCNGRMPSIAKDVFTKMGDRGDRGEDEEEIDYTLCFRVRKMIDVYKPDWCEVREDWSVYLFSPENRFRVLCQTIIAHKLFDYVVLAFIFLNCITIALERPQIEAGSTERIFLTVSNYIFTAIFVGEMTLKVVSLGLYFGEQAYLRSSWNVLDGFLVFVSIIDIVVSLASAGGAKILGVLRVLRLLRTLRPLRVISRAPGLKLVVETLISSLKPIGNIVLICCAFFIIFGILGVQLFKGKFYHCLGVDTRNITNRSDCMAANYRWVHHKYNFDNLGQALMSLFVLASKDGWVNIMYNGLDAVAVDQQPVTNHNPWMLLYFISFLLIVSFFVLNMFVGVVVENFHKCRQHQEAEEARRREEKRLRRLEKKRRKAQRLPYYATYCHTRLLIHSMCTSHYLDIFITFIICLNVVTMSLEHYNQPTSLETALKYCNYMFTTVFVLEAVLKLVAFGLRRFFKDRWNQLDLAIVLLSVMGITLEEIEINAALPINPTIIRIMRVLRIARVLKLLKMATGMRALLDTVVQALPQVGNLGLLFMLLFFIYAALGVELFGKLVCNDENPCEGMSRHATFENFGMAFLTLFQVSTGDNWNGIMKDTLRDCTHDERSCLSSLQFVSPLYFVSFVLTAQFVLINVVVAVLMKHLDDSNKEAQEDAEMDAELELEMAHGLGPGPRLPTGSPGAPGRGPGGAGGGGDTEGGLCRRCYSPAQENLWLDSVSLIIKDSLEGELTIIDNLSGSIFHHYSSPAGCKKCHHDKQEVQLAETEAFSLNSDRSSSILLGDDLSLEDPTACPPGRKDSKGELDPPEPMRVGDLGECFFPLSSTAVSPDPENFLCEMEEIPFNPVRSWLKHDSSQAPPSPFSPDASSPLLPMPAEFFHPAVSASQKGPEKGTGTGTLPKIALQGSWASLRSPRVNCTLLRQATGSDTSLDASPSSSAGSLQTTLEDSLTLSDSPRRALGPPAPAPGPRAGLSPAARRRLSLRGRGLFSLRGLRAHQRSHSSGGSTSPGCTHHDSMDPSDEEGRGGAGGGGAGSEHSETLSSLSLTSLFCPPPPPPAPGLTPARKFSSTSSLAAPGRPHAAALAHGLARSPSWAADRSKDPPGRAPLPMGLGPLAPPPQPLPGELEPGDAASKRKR

Cytochrome P450 3A4 = Cytochrome P450 3A4 (Homo sapiens, UniProt P08684); assay: Inhibition of CYP3A4 (unknown origin); format: ADME
Cytochrome P450 3A4, sequence (P08684 whole entry): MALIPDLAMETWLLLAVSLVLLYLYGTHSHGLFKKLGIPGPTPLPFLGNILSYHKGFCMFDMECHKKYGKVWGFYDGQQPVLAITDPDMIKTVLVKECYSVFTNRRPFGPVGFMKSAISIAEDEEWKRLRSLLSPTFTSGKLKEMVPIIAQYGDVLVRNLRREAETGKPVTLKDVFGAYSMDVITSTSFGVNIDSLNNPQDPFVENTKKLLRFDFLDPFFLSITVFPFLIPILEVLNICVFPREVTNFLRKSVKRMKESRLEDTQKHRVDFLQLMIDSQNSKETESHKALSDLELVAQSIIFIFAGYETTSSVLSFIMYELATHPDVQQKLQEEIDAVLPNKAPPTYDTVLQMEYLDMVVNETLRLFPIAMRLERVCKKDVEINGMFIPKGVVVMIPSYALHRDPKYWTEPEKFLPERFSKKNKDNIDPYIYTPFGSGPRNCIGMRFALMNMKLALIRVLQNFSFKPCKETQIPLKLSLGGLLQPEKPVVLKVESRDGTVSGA

Rattus norvegicus = assay: Toxicity in WAG/Rij rat model of generalized nonconvulsive absence like epilepsy at 100 mg/kg, po administered as single dose; format: organism-based; details: in vivo
[4] = Antiepileptic activity in WAG/Rij rat model of generalized nonconvulsive absence like epilepsy implanted with telemetric transmitter assessed as reduction in number of seizures at 100 mg/kg, po administered as single dose at nocturnal active phase measured after 12 hrs by […] analysis relative to control; format: functional, organism-based; design: scale not given: the % may be the effect or the level left
[5] = Antiepileptic activity in WAG/Rij rat model of generalized nonconvulsive absence like epilepsy implanted with telemetric transmitter assessed as reduction in cumulated duration of seizures at 100 mg/kg, po administered as single dose at nocturnal active phase measured after 12 hrs by […] analysis; format: functional, organism-based; design: scale not given: the % may be the effect or the level left
[6] = Antiepileptic activity in WAG/Rij rat model of generalized nonconvulsive absence like epilepsy implanted with telemetric transmitter assessed as reduction in number of seizures at 100 mg/kg, po administered as single dose at nocturnal active phase measured after 3 hrs by […] analysis; format: functional, organism-based; design: scale not given: the % may be the effect or the level left
[7] = Intrinsic clearance in human liver microsomes at 1 uM up to 15 mins in presence of NADPH by LC-MS-MS analysis; format: ADME; details: read-out: CLH
[8] = Fraction unbound in Wistar rat brain at 100 mg/kg, po after 1 hr by LC-MS/MS analysis; format: ADME, organism-based
[9] = Ratio of unbound brain concentration to unbound plasma concentration in Wistar rat at 100 mg/kg, po after 1 hr by LC-MS/MS analysis; format: ADME, organism-based
[10] = Unbound plasma concentration in Wistar rat at 100 mg/kg, po after 1 hr by LC-MS/MS analysis; format: ADME, organism-based; details: in vivo
[11] = Drug uptake in Wistar rat cerebrospinal fluid at 100 mg/kg, po after 1 hr by LC-MS/MS analysis; format: ADME, organism-based; details: read-out: Drug uptake
[12] = Ratio of unbound brain concentration in Wistar rat to IC50 for recombinant human CaV 3.3 channel expressed in HEK293 cells; format: ADME, cell-based
[13] = Drug uptake in Wistar rat brain at 100 mg/kg, po after 1 hr by LC-MS/MS analysis; format: ADME, organism-based; details: read-out: Drug uptake
[14] = Ratio of unbound brain concentration in Wistar rat to IC50 for recombinant human CaV 3.1 channel expressed in HEK293 cells; format: ADME, cell-based
[15] = Lipophilicity, logD of compund at pH 7.4; format: physicochemical; details: buffer
MDR1 [16] = assay: Efflux ratio for apparent permeability in MDCK1 cells expressing MDR1; format: ADME, cell-based, Canis lupus familiaris; details: dog, MDCK-MDR1
[17] = Ratio of drug level in brain to plasma in Wistar rat at 100 mg/kg, po after 1 hr by LC-MS/MS analysis; format: ADME, organism-based
[18] = AUC in Wistar rat at 100 mg/kg administered through oral gavage up to 24 hrs by LC-MS-MS analysis; format: ADME, organism-based; design: dose 100 mg/kg, time < 24 hr, route oral; details: in vivo
[19] = Solubility of the compound at pH 7; format: physicochemical; details: buffer
[20] = Fraction unbound in Wistar rat plasma at 100 mg/kg, po after 1 hr by LC-MS/MS analysis; format: ADME, organism-based
MDR1 [21] = assay: Apparent permeability from basolateral side to apical side in MDCK1 cells expressing MDR1; format: ADME, cell-based, Canis lupus familiaris; details: dog, MDCK-MDR1
[22] = Cmax in Wistar rat at 100 mg/kg administered through oral gavage up to 24 hrs by LC-MS-MS analysis; format: ADME, organism-based; design: dose 100 mg/kg, route oral; details: in vivo
[23] = Solubility of the compound in fast state simulated intestinal fluid; format: ADME; details: fasted state simulated intestinal fluid (FaSSIF)
[24] = Ratio of unbound brain concentration in Wistar rat to IC50 for recombinant human CaV 3.2 channel expressed in HEK293 cells; format: ADME, cell-based
[25] = Unbound brain concentration in Wistar rat at 100 mg/kg, po after 1 hr by LC-MS/MS analysis; format: ADME, organism-based; details: in vivo
[26] = Tmax in Wistar rat at 100 mg/kg administered through oral gavage by LC-MS-MS analysis; format: ADME, organism-based; details: in vivo
[27] = Solubility of the compound in fed state simulated intestinal fluid; format: ADME; details: fed state simulated intestinal fluid (FeSSIF)
[28] = Drug uptake in Wistar rat plasma at 100 mg/kg, po after 1 hr by LC-MS/MS analysis; format: ADME, organism-based
[29] = Dissociation constant, pKa of compound; format: physicochemical
MDR1 [30] = assay: Apparent permeability from apical side to basolateral side in MDCK1 cells expressing MDR1; format: ADME, cell-based, Canis lupus familiaris; details: dog, MDCK-MDR1
[31] = Intrinsic clearance in Wistar rat liver microsomes at 1 uM up to 15 mins in presence of NADPH by LC-MS-MS analysis; format: ADME; details: read-out: CLH
[32] = Drug level in human liver microsomes treated with (+/-)-1-((3R,5S)-1-benzyl-3,5-dimethyl-2,3-dihydro-1H-benzo[e][1,4]diazepin-4(5H)-yl)-3-methoxypropan-1-one at 10 uM after 30 mins by LC-MS/MS analysis; format: ADME; details: 0.5 h
[33] = Drug metabolism in human liver microsomes assessed as (+/-)-1-((3R,5S)-3,5-dimethyl-2,3-dihydro-1H-benzo[e][1,4]diazepin-4(5H)-yl)-3-methoxypropan-1-one metabolite formation at 10 uM after 30 mins by LC-MS/MS analysis; format: ADME; details: 0.5 h

Voltage-dependent T-type calcium channel subunit alpha-1H, sequence (O95180 whole entry): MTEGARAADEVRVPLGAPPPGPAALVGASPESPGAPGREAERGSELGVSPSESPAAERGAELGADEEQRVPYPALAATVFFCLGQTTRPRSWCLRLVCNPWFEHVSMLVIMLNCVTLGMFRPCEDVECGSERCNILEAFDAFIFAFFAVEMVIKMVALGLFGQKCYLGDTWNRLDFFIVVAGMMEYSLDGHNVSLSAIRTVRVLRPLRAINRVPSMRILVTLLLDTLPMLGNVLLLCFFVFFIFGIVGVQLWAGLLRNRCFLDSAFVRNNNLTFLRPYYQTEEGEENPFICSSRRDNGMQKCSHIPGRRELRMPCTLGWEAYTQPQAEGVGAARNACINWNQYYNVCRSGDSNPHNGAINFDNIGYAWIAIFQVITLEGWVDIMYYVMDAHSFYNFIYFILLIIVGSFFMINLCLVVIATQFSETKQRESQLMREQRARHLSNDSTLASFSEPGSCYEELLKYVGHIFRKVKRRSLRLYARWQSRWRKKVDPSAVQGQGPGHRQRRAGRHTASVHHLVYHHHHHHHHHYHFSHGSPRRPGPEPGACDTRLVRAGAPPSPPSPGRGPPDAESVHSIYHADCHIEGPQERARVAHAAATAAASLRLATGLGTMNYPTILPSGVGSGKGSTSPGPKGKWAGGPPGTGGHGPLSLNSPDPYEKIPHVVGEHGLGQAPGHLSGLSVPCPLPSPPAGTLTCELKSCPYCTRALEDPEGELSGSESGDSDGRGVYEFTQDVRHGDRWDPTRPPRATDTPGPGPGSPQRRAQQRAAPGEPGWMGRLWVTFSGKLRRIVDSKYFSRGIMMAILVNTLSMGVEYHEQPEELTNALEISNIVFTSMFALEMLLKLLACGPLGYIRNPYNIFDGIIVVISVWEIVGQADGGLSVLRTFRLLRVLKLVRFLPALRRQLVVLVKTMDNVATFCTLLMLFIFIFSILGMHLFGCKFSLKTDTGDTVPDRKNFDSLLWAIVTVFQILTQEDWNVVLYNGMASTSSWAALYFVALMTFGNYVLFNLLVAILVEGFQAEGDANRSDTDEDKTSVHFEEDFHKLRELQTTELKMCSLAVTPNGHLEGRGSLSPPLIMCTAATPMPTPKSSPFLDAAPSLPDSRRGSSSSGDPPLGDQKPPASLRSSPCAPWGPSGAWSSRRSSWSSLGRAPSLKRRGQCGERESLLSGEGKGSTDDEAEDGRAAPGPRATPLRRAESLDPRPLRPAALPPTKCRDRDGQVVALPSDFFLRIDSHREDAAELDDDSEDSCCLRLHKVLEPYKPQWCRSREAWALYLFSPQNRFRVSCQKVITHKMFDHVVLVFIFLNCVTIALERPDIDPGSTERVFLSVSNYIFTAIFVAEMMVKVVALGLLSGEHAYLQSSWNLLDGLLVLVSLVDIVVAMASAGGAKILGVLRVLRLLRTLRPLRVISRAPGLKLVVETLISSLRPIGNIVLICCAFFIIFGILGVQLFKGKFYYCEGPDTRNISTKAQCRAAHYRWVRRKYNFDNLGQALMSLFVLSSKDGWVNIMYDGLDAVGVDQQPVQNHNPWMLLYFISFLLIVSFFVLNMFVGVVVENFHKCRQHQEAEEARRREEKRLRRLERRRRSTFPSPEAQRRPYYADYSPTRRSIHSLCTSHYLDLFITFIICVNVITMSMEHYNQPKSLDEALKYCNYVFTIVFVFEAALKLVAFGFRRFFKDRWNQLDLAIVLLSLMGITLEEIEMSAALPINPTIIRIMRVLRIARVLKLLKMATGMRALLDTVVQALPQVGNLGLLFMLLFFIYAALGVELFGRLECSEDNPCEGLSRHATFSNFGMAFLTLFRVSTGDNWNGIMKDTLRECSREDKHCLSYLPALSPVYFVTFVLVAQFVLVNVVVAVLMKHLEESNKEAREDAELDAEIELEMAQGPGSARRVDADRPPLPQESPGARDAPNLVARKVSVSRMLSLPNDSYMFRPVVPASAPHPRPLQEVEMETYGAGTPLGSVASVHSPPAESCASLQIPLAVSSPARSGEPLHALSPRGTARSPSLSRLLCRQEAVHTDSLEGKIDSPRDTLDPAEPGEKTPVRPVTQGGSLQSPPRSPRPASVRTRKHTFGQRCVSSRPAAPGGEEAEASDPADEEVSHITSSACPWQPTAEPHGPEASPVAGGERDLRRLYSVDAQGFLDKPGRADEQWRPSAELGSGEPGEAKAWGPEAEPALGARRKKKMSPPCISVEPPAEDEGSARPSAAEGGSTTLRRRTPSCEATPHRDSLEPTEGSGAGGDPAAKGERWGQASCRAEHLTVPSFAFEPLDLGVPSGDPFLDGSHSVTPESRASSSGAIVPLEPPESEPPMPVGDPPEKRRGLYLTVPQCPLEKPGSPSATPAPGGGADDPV

| SMILES | IC50 [1] | IC50 [2] | IC50 [3] | microsomal CLint at 1 µM [7] | logD [15] | efflux ratio (MDR1 [16]) | solubility [19] | Papp B→A (MDR1 [21]) | pKa [29] | Papp A→B (MDR1 [30]) | microsomal CLint at 1 µM [31] | other results |
| --- | --- | --- | --- | --- | --- | --- | --- | --- | --- | --- | --- | --- |
| C[C@@H]1CN(Cc2ccccc2)c2cnccc2[C@H](C)N1C(=O)NCc1ccccc1 [listing 2 of 2 here] |  |  |  |  |  |  |  |  |  |  |  | Activity [4]: 50%; Activity [5]: 50%; Activity [6]: 100% |
| C[C@@H]1CN(Cc2ccccc2)c2cncc(F)c2[C@H](C)N1C(=O)Nc1cccnc1 (racemic) | 240 nM | 107 nM | 133 nM | 83 µL/min/mg | 3.3 | 60 | 177 µg/mL (≈ 437 µM) | 53.8 ×10⁻⁶ cm/s | 3.8 to 4.7 | 0.9 ×10⁻⁶ cm/s | 500 µL/min/mg |  |
| C[C@@H]1CN(Cc2ccccc2)c2ccccc2[C@H](C)N1C(=O)NCc1ccccc1 (racemic) | 35 nM | 17 nM | 8 nM | > 1250 µL/min/mg | > 4.1 |  | < 1 µg/mL |  |  |  | > 1250 µL/min/mg | solubility [23]: 6 µg/mL (≈ 15 µM); solubility [27]: 20 µg/mL (≈ 50.1 µM) |
| COCCC(=O)N1[C@H](C)CNc2ccccc2[C@@H]1C (racemic) |  |  |  |  |  |  |  |  |  |  |  | Drug metabolism [32]: Metabolite_Detected |
| C[C@@H]1CN(Cc2ccccc2)c2cncc(F)c2[C@H](C)N1C(=O)NCc1ccccc1 (racemic) | 72 nM | 140 nM | 9 nM | 185 µL/min/mg |  | 2.3 |  | 61 ×10⁻⁶ cm/s | 4.2 | 26.3 ×10⁻⁶ cm/s |  |  |
| COCCC(=O)N1[C@H](C)CN(Cc2ccccc2)c2ccccc2[C@@H]1C (racemic) |  |  |  | > 1250 µL/min/mg |  |  | 27 µg/mL (≈ 76.6 µM) |  |  |  | > 1250 µL/min/mg | Drug metabolism [33]: Metabolite_Detected; solubility [23]: 58 µg/mL (≈ 165 µM); solubility [27]: 195 µg/mL (≈ 553 µM) |
| C[C@@H]1CN(Cc2ccccc2)c2ccccc2[C@H](C)N1C(=O)N1CCOCC1 (racemic) | 58 nM | 26 nM | 9 nM | > 1250 µL/min/mg |  |  | 21 to 39 µg/mL (≈ 55.3 to 103 µM) |  |  |  |  |  |

Continued, in another order:

| IC50 [1] | IC50 [2] | IC50 [3] | microsomal CLint at 1 µM [7] | logD [15] | efflux ratio (MDR1 [16]) | solubility [19] | Papp B→A (MDR1 [21]) | pKa [29] | Papp A→B (MDR1 [30]) | microsomal CLint at 1 µM [31] | SMILES | other results |
| --- | --- | --- | --- | --- | --- | --- | --- | --- | --- | --- | --- | --- |
| 102 nM | 138 nM | 11 nM |  |  |  |  |  |  |  |  | C[C@@H]1CN(Cc2ccccc2)c2cnccc2[C@H](C)N1C(=O)NCc1ccccc1 [listing 1 of 2 here] | IC50 (Cytochrome P450 3A4): 23 to 31 nM; Activity (Rattus norvegicus): Non-Toxic |
| 236 nM | 142 nM | 25 nM | 276 µL/min/mg | 3.1 | 3.4 | 42 µg/mL (≈ 105 µM) | 55.8 ×10⁻⁶ cm/s | 6.2 | 16.6 ×10⁻⁶ cm/s |  | C[C@@H]1CN(Cc2ccccc2)c2cnccc2[C@H](C)N1C(=O)NCc1ccccc1 (racemic) | fraction unbound at 1 h [8]: 0.022; BPR [9]: 27%; Cp(f) [10]: 128 nM; concentration at 1 h [11]: 494 nM; Ratio [12]: 1.5; concentration at 1 h [13]: 1600 nM; Ratio [14]: 0.25; BPR [17]: 24%; AUC at 24 h [18]: 21800 ng·h/mL; fraction unbound at 1 h [20]: 0.019; Cmax [22]: 5440 ng/mL; solubility [23]: 89 µg/mL (≈ 222 µM); Ratio [24]: 0.15; Drug uptake(free) [25]: 35 nM; Tmax [26]: 30 min; solubility [27]: 318 µg/mL (≈ 794 µM); concentration at 1 h [28]: 6780 nM |
| 55 nM | 76 nM | 25 nM | 94 µL/min/mg | 4 | 5.1 | 9 µg/mL (≈ 21.9 µM) | 54.5 ×10⁻⁶ cm/s | 6.4 | 10.6 ×10⁻⁶ cm/s | 885 µL/min/mg | COc1ccc(CNC(=O)N2[C@H](C)CN(CCC(C)C)c3cnccc3[C@@H]2C)cc1 (racemic) |  |
| 604 nM | 613 nM | 251 nM | 30 µL/min/mg | 3.2 | 140 | 309 µg/mL (≈ 841 µM) | 56 ×10⁻⁶ cm/s | 4.4 to 6.3 | 0.4 ×10⁻⁶ cm/s | 496 µL/min/mg | CC(C)CCN1C[C@@H](C)N(C(=O)Nc2cccnc2)[C@@H](C)c2ccncc21 (racemic) |  |

Source: ChEMBL document CHEMBL3864167, “Structure-Activity Relationship, Drug Metabolism and Pharmacokinetics Properties Optimization, and in Vivo Studies of New Brain Penetrant Triple T-Type Calcium Channel Blockers” (J Med Chem, 2016)
